The assay has as its system U2OS_Bim cells. Nature of the assay: Apoptosis inhibition assay (Bim-induced apoptosis, cell viability by ATP level). Type of assay: cell-based. The note with it: U2OS_Bim cells, numbering of Tables 4a/4b, read-out: EC50. Summed up:
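Apoptosis was triggered by doxycycline (0.1 μg/mL) induction of Bim, one hour after compound addition to U2OS_Bim cells. Survival was measured after 24 h from cellular ATP (CellTiter-Glo), relative to DMSO, with zVAD at 20 μM as rescue control. Data are duplicate means, some estimated from preliminary results.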

Where [1] appears, read: estimated based on preliminary results.

Like-named read-outs stand apart in the source and are kept apart here.

A word on the EC50: it is the concentration giving half of the maximal effect. On to `CS(=O)(=O)c1nc(-c2ccc(=O)n(Cc3ccc4nccnc4c3)c2)cc(C(F)(F)F)n1` [Compound 244], for which, under setting [1], the 50% effective concentration (EC50) is < 10 µM. Still for that read-out and setting: next, `C[S+]([O-])c1nc(-c2ccc(=O)n(Cc3ccc4nccnc4c3)c2)cc(C(F)(F)F)n1` (stereo not shown) [Compound 245]: < 10 µM.

Consider `CS(=O)(=O)c1nc(-c2ccc(=O)n(Cc3ccc4ncccc4c3)c2)cc(C(F)(F)F)n1` [Compound 246], for which, under setting [1], the EC50 was < 10 µM.

As for `C[S+]([O-])c1nc(-c2ccc(=O)n(Cc3ccc4ncccc4c3)c2)cc(C(F)(F)F)n1` (stereo not shown) [Compound 247], the EC50 under setting [1] was < 10 µM. On the same count and under the same terms, next, `CS(=O)(=O)c1nc(-c2ccc(=O)n(Cc3ccc4cnccc4c3)c2)cc(C(F)(F)F)n1` [Compound 248]: < 10 µM; `C[S+]([O-])c1nc(-c2ccc(=O)n(Cc3ccc4cnccc4c3)c2)cc(C(F)(F)F)n1` (stereo not shown) [Compound 249]: < 10 µM; `CS(=O)(=O)c1nc(-c2ccc(=O)n(Cc3ccc4ccncc4c3)c2)cc(C(F)(F)F)n1` [Compound 250]: < 10 µM.

Take `C[S+]([O-])c1nc(-c2ccc(=O)n(Cc3ccc4ccncc4c3)c2)cc(C(F)(F)F)n1` (stereo not shown) [Compound 251]: the concentration for a half-maximal effect (EC50) under setting [1] was < 10 µM. On the same count and under the same terms, next, `CS(=O)(=O)c1nc(-c2ccc(=O)n(Cc3ccc4cccnc4c3)c2)cc(C(F)(F)F)n1` [Compound 252]: < 10 µM. Consider `C[S+]([O-])c1nc(-c2ccc(=O)n(Cc3ccc4cccnc4c3)c2)cc(C(F)(F)F)n1` (stereo not shown) [Compound 253], for which the 50% effective concentration (EC50) under setting [1] is < 10 µM. As to `CS(=O)(=O)c1nc(-c2ccc(=O)n(CC3=Cc4ccccc4C3)c2)cc(C(F)(F)F)n1` [Compound 254], the concentration giving a half-maximal response (EC50) under setting [1] was < 10 µM. In the case of `C[S+]([O-])c1nc(-c2ccc(=O)n(CC3=Cc4ccccc4C3)c2)cc(C(F)(F)F)n1` (stereo not shown) [Compound 255], the concentration for a half-maximal effect (EC50) under setting [1] was < 10 µM.

Take `CS(=O)(=O)c1nc(-c2ccc(=O)n(Cn3ccc4ccccc43)c2)cc(C(F)(F)F)n1` [Compound 256]: the concentration giving a half-maximal response (EC50) under setting [1] was < 10 µM. The same measure, in the same setting: next, `C[S+]([O-])c1nc(-c2ccc(=O)n(Cn3ccc4ccccc43)c2)cc(C(F)(F)F)n1` (stereo not shown) [Compound 257]: < 10 µM. Take `COc1cn(Cn2cc(-c3cc(C(F)(F)F)nc(S(C)(=O)=O)n3)ccc2=O)cc1OC` [Compound 258]: the EC50 under setting [1] is < 10 µM. Same read-out and setting: next, `COc1cn(Cn2cc(-c3cc(C(F)(F)F)nc([S+](C)[O-])n3)ccc2=O)cc1OC` (stereo not shown) [Compound 259]: < 10 µM.

Turning to `COc1ccn(Cn2cc(-c3cc(C(F)(F)F)nc(S(C)(=O)=O)n3)ccc2=O)c1` [Compound 260], under setting [1], the half-maximal effective concentration (EC50) is < 10 µM. On the same count and under the same terms, the figure for `COc1ccn(Cn2cc(-c3cc(C(F)(F)F)nc([S+](C)[O-])n3)ccc2=O)c1` (stereo not shown) [Compound 261] is < 10 µM; for `CCc1cc(Cn2cc(-c3cc(C(F)(F)F)nc(S(C)(=O)=O)n3)ccc2=O)ccc1OC` [Compound 262] it is < 10 µM; for `CCc1cc(Cn2cc(-c3cc(C(F)(F)F)nc([S+](C)[O-])n3)ccc2=O)ccc1OC` (stereo not shown) [Compound 263] it is < 10 µM.

Take `CCc1ccc(Cn2cc(-c3cc(C(F)(F)F)nc(S(C)(=O)=O)n3)ccc2=O)cc1OC` [Compound 264]: the EC50 under setting [1] is < 10 µM. For the compound `CCc1ccc(Cn2cc(-c3cc(C(F)(F)F)nc([S+](C)[O-])n3)ccc2=O)cc1OC` (stereo not shown) [Compound 265], the EC50 under setting [1] was < 10 µM. As for `CCc1ccc(Cn2cc(-c3cc(C(F)(F)F)nc(S(C)(=O)=O)n3)ccc2=O)cc1CC` [Compound 266], the half-maximal effective concentration (EC50) under setting [1] was < 10 µM. Still for that read-out and setting: next, `CCc1ccc(Cn2cc(-c3cc(C(F)(F)F)nc([S+](C)[O-])n3)ccc2=O)cc1CC` (stereo not shown) [Compound 267]: < 10 µM. On the same count and under the same terms, next, `CCOc1cccc(Cn2cc(-c3cc(C(F)(F)F)nc([S+](C)[O-])n3)ccc2=O)c1` (stereo not shown) [Compound 268]: < 10 µM. In the case of `CCC(=O)c1cc(-c2ccc(=O)n(Cc3ccc(OC)c(OC)c3)c2)nc(S(C)(=O)=O)n1` [Compound 269, 1-(3,4-dimethoxybenzyl)-5-(2-(methylsulfonyl)-6-propionylpyrimidin-4-yl)pyridin-2 (1H)-one], the EC50 under setting [1] is < 10 µM. On the same count and under the same terms, the figure for `CCC(F)(F)c1cc(-c2ccc(=O)n(Cc3ccc(OC)c(OC)c3)c2)nc(S(C)(=O)=O)n1` [Compound 270, 5-(6-(1,1-difluoropropyl)-2-(methylsulfonyl)pyrimidin-4-yl)-1-(3,4-dimethoxybenzyl)pyridin-2 (1H)-one] is < 10 µM; for `COc1ccc(Cn2cc(-c3cc(C(=O)c4ccccc4)nc(S(C)(=O)=O)n3)ccc2=O)cc1OC` [Compound 271, 5-(6-benzoyl-2-(methylsulfonyl)pyrimidin-4-yl)-1-(3,4-dimethoxybenzyl)pyridin-2 (1H)-one] it is < 10 µM. `COc1ccc(Cn2cc(-c3cc(C(F)F)nc(S(=O)(=O)CCCOCc4ccccc4)n3)ccc2=O)cc1OC` [Compound 272, 5-(2-((3-(benzyloxy)propyl)sulfonyl)-6-(difluoromethyl)pyrimidin-4-yl)-1-(3,4-dimethoxybenzyl)pyridin-2 (1H)-one]: the EC50 (estimated (*Est.) / preliminary results) is 0.001 to 1 µM. For the compound `COc1ccc(Cn2cc(-c3cc(C(F)F)nc(S(=O)(=O)CCCO)n3)ccc2=O)cc1OC` [Compound 273, 5-(6-(difluoromethyl)-2-((3-hydroxypropyl)sulfonyl)pyrimidin-4-yl)-1-(3,4-dimethoxybenzyl)pyridin-2 (1H)-one], under setting [1], the EC50 is 1 to 10 µM. The same measure, in the same setting: next, `COc1ccc(OC2CCCN(c3cc(C(F)(F)F)nc(S(C)(=O)=O)n3)C2)cc1OC` (stereo not shown) [Compound 274, 4-(3-(3,4-dimethoxyphenoxy)piperidin-1-yl)-2-(methylsulfonyl)-6-(trifluoromethyl)pyrimidine]: < 100 µM. As for `COc1ccc(Cn2cc(-c3cc(=O)n(C)c(S(C)(=O)=O)n3)ccc2=O)cc1OC` [Compound 275, 6-(1-(3,4-dimethoxybenzyl)-6-oxo-1,6-dihydropyridin-3-yl)-3-methyl-2-(methylsulfonyl)pyrimidin-4 (3H)-one], the EC50 (means of duplicates) was < 100 µM.

`COc1ccc(Cn2cc(-c3cc(C(F)(F)F)nc(S(=O)(=O)CCCCO)n3)ccc2=O)cc1OC` [Compound 276, 1-(3,4-dimethoxybenzyl)-5-(2-((4-hydroxybutyl)sulfonyl)-6-(trifluoromethyl)pyrimidin-4-yl)pyridin-2 (1H)-one]: the 50% effective concentration (EC50) (means of duplicates) was in the range of 0.001 to 1 µM. Consider `COc1ccc(Cn2cc(-c3cc(C(F)F)nc([S+]([O-])CCC(OCc4ccccc4)c4ccccc4)n3)ccc2=O)cc1OC` (stereo not shown) [Compound 277, 5-(2-((3-(benzyloxy)-3-phenylpropyl)sulfinyl)-6-(difluoromethyl)pyrimidin-4-yl)-1-(3,4-dimethoxybenzyl)pyridin-2 (1H)-one], for which, under “means of duplicates”, the half-maximal effective concentration (EC50) is 0.001 to 1 µM. For `COc1ccc(Cn2cc(-c3cc(C(F)F)nc(S(=O)(=O)CCC(OCc4ccccc4)c4ccccc4)n3)ccc2=O)cc1OC` (stereo not shown) [Compound 278, 5-(2-((3-(benzyloxy)-3-phenylpropyl)sulfonyl)-6-(difluoromethyl)pyrimidin-4-yl)-1-(3,4-dimethoxybenzyl)pyridin-2 (1H)-one], for the setting “means of duplicates”, the concentration for a half-maximal effect (EC50) is 0.001 to 1 µM. Consider `COc1ccc(Cn2cc(-c3cc(C(F)F)nc(S(=O)(=O)CCC(Cl)c4ccccc4)n3)ccc2=O)cc1OC` (stereo not shown) [Compound 279, 5-(2-((3-chloro-3-phenylpropyl)sulfonyl)-6-(difluoromethyl)pyrimidin-4-yl)-1-(3,4-dimethoxybenzyl)pyridin-2 (1H)-one], for which the EC50 (means of duplicates) was in the range of 0.001 to 1 µM.

Take `COc1ccc(Cn2cc(-c3cc(C(F)(F)F)nc([S+]([O-])CCC(OCc4ccccc4)c4ccccc4)n3)ccc2=O)cc1OC` (stereo not shown) [Compound 280, 5-(2-((3-(benzyloxy)-3-phenylpropyl)sulfinyl)-6-(trifluoromethyl)pyrimidin-4-yl)-1-(3,4-dimethoxybenzyl)pyridin-2 (1H)-one]: the EC50 (means of duplicates) was 0.001 to 1 µM. Still for that read-out and setting: the figure for `COc1ccc(Cn2cc(-c3cc(C(F)(F)F)nc(S(=O)(=O)CCC(OCc4ccccc4)c4ccccc4)n3)ccc2=O)cc1OC` (stereo not shown) [Compound 281, 5-(2-((3-(benzyloxy)-3-phenylpropyl)sulfonyl)-6-(trifluoromethyl)pyrimidin-4-yl)-1-(3,4-dimethoxybenzyl)pyridin-2 (1H)-one] is 0.001 to 1 µM; for `COc1ccc(Cn2cc(-c3cc(CF)nc(S(=O)(=O)CCC(OCc4ccccc4)c4ccccc4)n3)ccc2=O)cc1OC` (stereo not shown) [Compound 282, 5-(2-((3-(benzyloxy)-3-phenylpropyl)sulfonyl)-6-(fluoromethyl)pyrimidin-4-yl)-1-(3,4-dimethoxybenzyl)pyridin-2 (1H)-one] it is 0.001 to 1 µM; for `COc1ccc(Cn2cc(-c3cc(C(F)F)nc([S+]([O-])CCC(OCc4ccccc4F)c4ccccc4)n3)ccc2=O)cc1F` (stereo not shown) [Compound 283, 5-(6-(difluoromethyl)-2-(3-(2-fluorobenzyloxy)-3-phenylpropylsulfinyl)pyrimidin-4-yl)-1-(3-fluoro-4-methoxybenzyl)pyridin-2 (1H)-one] it is 0.001 to 1 µM. On the same count and under the same terms, next, `COc1ccc(Cn2cc(-c3cc(C(F)F)nc(S(=O)(=O)CCC(OCc4ccccc4F)c4ccccc4)n3)ccc2=O)cc1F` (stereo not shown) [Compound 284, 5-(6-(difluoromethyl)-2-(3-(2-fluorobenzyloxy)-3-phenylpropylsulfonyl)pyrimidin-4-yl)-1-(3-fluoro-4-methoxybenzyl)pyridin-2 (1H)-one]: 0.001 to 1 µM. As for `COc1ccc(Cn2cc(-c3cc(C(F)F)nc(S(=O)(=O)CCC(OCc4ccc(F)cc4F)c4ccccc4)n3)ccc2=O)cc1F` (stereo not shown) [Compound 286, 5-(2-(3-(2,4-difluorobenzyloxy)-3-phenylpropylsulfonyl)-6-(difluoromethyl)pyrimidin-4-yl)-1-(3-fluoro-4-methoxybenzyl)pyridin-2 (1H)-one], the EC50 (means of duplicates) lay in the range of 0.001 to 1 µM. On to `COc1ccc(Cn2cc(-c3cc(C(F)F)nc(S(=O)(=O)CCC(O)c4ccccc4)n3)ccc2=O)cc1F` (stereo not shown) [Compound 287, 5-(6-(difluoromethyl)-2-((3-hydroxy-3-phenylpropyl)sulfonyl)pyrimidin-4-yl)-1-(3-fluoro-4-methoxybenzyl)pyridin-2 (1H)-one], for which, where the note is “means of duplicates”, the EC50 fell in the range of 0.001 to 1 µM.

The values are drawn from patent publication US11725000B2, “Apoptosis inhibitors” (National Institute of Biological Sciences, Beijing, priority 2017, dated 2023).
